Experimental data published in US20210221817A1, “NOVEL HETEROAROMATIC COMPOUNDS AS POTENT MODULATORS OF THE HIPPO-YAP SIGNALING PATHWAY LATS1/2 KINASES” (Nivien Therapeutics Compny, priority 2018, published 2021).

What was measured:
[1] = test system: ABCG2 transcription in PANC1 cells; assay: ABCG2 transcription in PDAC PANC1 cells (FIG. 2); assay type: cell-based; conditions: 25 μM, 48-hour treatment
Experimental: FIG. 2 is an image showing that the LATS1/2 inhibitors of the invention reduce transcription of ABCG2, a critical multidrug efflux transporter, in PDAC PANC1 cells. The y-axis is the normalized transcription level of ABCG2. The bar labeled ABCG2_control represents PANC1 cells that received no treatment. The bar labeled ABCG2_201 represents PANC1 cells treated with 4-(6-(4-(2-morpholinoethoxy)phenyl)imidazo[1,2-b]pyridazin-3-yl)benzamide (compound 1) at 25 μM. The bar labeled ABCG2_206 represents cells treated with 4-(6-(piperazin-1-yl)imidazo[1,2-b]pyridazin-3-yl)benzamide (compound 2) 25 μM.

[2] = test system: YAP phosphorylation in PANC1 cells; assay: YAP phosphorylation in PDAC PANC1 cells (FIG. 1); assay type: cell-based; conditions: 48 h; for overall YAP levels / p-YAP levels (YAP phosphorylation): 5 μM and 25 μM
Experimental: FIG. 1 is an image showing that the LATS1/2 inhibitors of the invention reduce YAP phosphorylation in PDAC PANC1 cells in a dose-dependent manner. FIG. 1 consists of two columns. On the left: the cells were treated with control and 5 μM of each of the compounds of the invention. Control in lane “C.” In lane “1” is 4-(6-(4-(2-morpholinoethoxy)phenyl)imidazo[1,2-b]pyridazin-3-yl)benzamide (compound 1). In lane “2” is 4-(6-(3-aminopiperidin-1-yl)imidazo[1,2-b]pyridazin-3-yl)benzamide (compound 3). In lane “4” is 4-(6-(4-aminopiperidin-1-yl)imidazo[1,2-b]pyridazin-3-yl)benzamide (compound 4). In lane “6” is 4-(6-(piperazin-1-yl)imidazo[1,2-b]pyridazin-3-yl)benzamide (compound 2). In lane “7” is 4-(4-(4-(4-chlorophenyl)piperidin-4-yl)phenyl)-3-methyl-1H-pyrazolo[4,3-c]pyridine (compound 5).
(§1) On the left: the cells were treated with control and 25 μM of each of the compounds of the invention. Control in lane “C.” In lane “1” is 4-(6-(4-(2-morpholinoethoxy)phenyl)imidazo[1,2-b]pyridazin-3-yl)benzamide (compound 1). In lane “2” is 4-(6-(3-aminopiperidin-1-yl)imidazo[1,2-b]pyridazin-3-yl)benzamide (compound 3). In lane “4” is 4-(6-(4-aminopiperidin-1-yl)imidazo[1,2-b]pyridazin-3-yl)benzamide (compound 4). In lane “6” is 4-(6-(piperazin-1-yl)imidazo[1,2-b]pyridazin-3-yl)benzamide (compound 2). In lane “7” is 4-(4-(4-(4-chlorophenyl)piperidin-4-yl)phenyl)-3-methyl-1H-pyrazolo[4,3-c]pyridine (Compound 5).
(§2) YAP is stained for Yes-associated protein; p-YAP is stained for phosphorylated Yes-associated protein; GAPDH is a standard protein loading control.

LATS1/2 = target: T1, LATS1/2; assay: TR-FRET LanthaScreen binding assay; conditions: LATS1 (aa 589-1130), LATS2 (aa 488-1080), kinase tracer 236
T1 construct: LATS1 (amino acids 589-1130; ThermoFisher, PV6363), LATS2 (amino acids 488-1080; fused on or other part: GST tag, inferred from the LanthaScreen Eu-anti-GST antibody and the ThermoFisher products
Experimental: IC50 scores were determined using a TR-FRET LanthaScreen binding assay using LATS1 (amino acids 589-1130; ThermoFisher, PV6363), LATS2 (amino acids 488-1080; ThermoFisher, PV6366); kinase tracer 236 (ThermoFisher, PV5592); LanthaScreen Eu-anti-GST (ThermoFisher, PV3189); 5× kinase buffer A (ThermoFisher, PV6135); low-volume 384-well plate format.

PANC1 cells = assay: Killing of PANC1 cells observed in the FIG. 1 experiment; assay type: cell-based; conditions: higher dose (25 μM)
Experimental: as §1, §2

Which ABCG2 transcription levels [1] does the source give for `NC(=O)c1ccc(-c2cnc3ccc(-c4ccc(OCCN5CCOCC5)cc4)nn23)cc1` [Compound 1, 4-(6-(4-(2-Morpholinoethoxy)phenyl)imidazo[1,2-b]pyridazin-3-yl)benzamide] here?
Its ABCG2 transcription levels is “reduce ABCG2 transcription levels”.

What about the “overall YAP levels” value [2] of the same compound?
Its value is “without impacting overall YAP levels”.

What about the “p-YAP levels (YAP phosphorylation)” value [2] of the same compound?
Its value is “reduce p-YAP levels”.

And the IC50 (LATS1/2)?
Its IC50 is 10 to 1000 nM.

What does the source list for `NC(=O)c1ccc(-c2cnc3ccc(N4CCNCC4)nn23)cc1` [Compound 2, 4-(6-(piperazin-1-yl)imidazo[1,2-b]pyridazin-3-yl)benzamide]?
ABCG2 transcription levels [1]: reduce ABCG2 transcription levels; overall YAP levels [2]: without impacting overall YAP levels; p-YAP levels (YAP phosphorylation) [2]: reduce p-YAP levels; IC50 (LATS1/2): 0.1 to 50 nM

`NC(=O)c1ccc(-c2cnc3ccc(N4CCCC(N)C4)nn23)cc1` (stereo not shown) [Compound 3, 4-(6-(3-Aminopiperidin-1-yl)imidazo[1,2-b]pyridazin-3-yl)benzamide] was tested. Which IC50 (LATS1/2) did it give?
Its IC50 is 0.1 to 50 nM.

Which IC50 (LATS1/2) does the source give for `NC(=O)c1ccc(-c2cnc3ccc(N4CCC(N)CC4)nn23)cc1` [Compound 4, 4-(6-(4-Aminopiperidin-1-yl)imidazo[1,2-b]pyridazin-3-yl)benzamide] here?
Its IC50 is 0.1 to 50 nM.

Which results are given for `Cc1n[nH]c2ccnc(-c3ccc(C4(c5ccc(Cl)cc5)CCNCC4)cc3)c12` [Compound 5, 4-(4-(4-(4-chlorophenyl)piperidin-4-yl)phenyl)-3-methyl-1H-pyrazolo[4,3-c]pyridine]?
p-YAP levels at the lower dose ([2]; lower dose (5 μM)): reduced p-YAP levels; killing of PANC1 cells at the higher dose (PANC1 cells): killed all PANC1 cells; IC50 (LATS1/2): 0.1 to 50 nM
